Measurements reported in patent US6984403B2, “Azithromycin dosage forms with reduced side effects” (Pfizer Inc., priority 2003, dated 2006).
In brackets after ≈: the same amount, converted by molar mass. Like-named read-outs stand apart in the source and are kept apart here.

Key:
[1] = Azithromycin solubility as a function of pH; type: physicochemical
Procedure: The effective amount of alkaline agent that would suppress the dissolution of azithromycin in the stomach and thereby result in an improvement in the toleration of the immediate release (IR) formulation was calculated as follows. The IR formulation, without an alkalizing agent, releases about 92% of the drug in 30 minutes at pH 6.0 as described in Example 5, i.e., 3.07% per minute at pH 6.0. To improve the toleration, the azithromycin dissolution rate must be reduced, preferably to a rate that will release only about 1.5 gA, or less, in the first 30 minutes or no greater than 2.5% per minute. It was assumed that the rate of drug dissolution from an IR formulation is directly proportional to the solubility of azithromycin, which is dependent on the pH as shown in Table 10.

[2] = 3,995 human patients, all dose levels combined, cited from earlier work
[3] = cited from earlier work
[4] = taken simultaneously with antacids; cited from earlier work
[5] = adult humans, single 1 gram dose, oral suspension
[6] = adult humans, single 2 gram, oral suspension
[7] = pediatric humans, oral suspension 10 mg/kg on Day 1 and 5 mg/kg on days 2–5
[8] = pediatric humans, single 30 mg/kg dose, oral suspension

## CC[C@H]1OC(=O)[C@H](C)[C@@H](O[C@H]2C[C@@](C)(OC)[C@@H](O)[C@H](C)O2)[C@H](C)[C@@H](O[C@@H]2O[C@H](C)C[C@H](N(C)C)[C@H]2O)[C@](C)(O)C[C@@H](C)CN(C)[C@H](C)[C@@H](O)[C@]1(C)O [Azithromycin, azithromycin]
[1]; aqueous buffer, pH 6.0, obtained by interpolation from Table 10, read-out: azithromycin solubility at pH 6.0
  solubility: 390 mg/mL (≈ 521 mM)
[1]; pH 2.88, aqueous buffer, read-out: Azithromycin Solubility
  solubility: 440 mg/mL (≈ 587 mM)
[1]; pH 4.09, aqueous buffer, read-out: Azithromycin Solubility
  solubility: 430 mg/mL (≈ 574 mM)
[1]; pH 6.15, aqueous buffer, read-out: Azithromycin Solubility
  solubility: 380 mg/mL (≈ 507 mM)
[1]; pH 6.42, aqueous buffer, read-out: Azithromycin Solubility
  solubility: 310 mg/mL (≈ 414 mM)
[1]; pH 6.61, aqueous buffer, read-out: Azithromycin Solubility
  solubility: 250 mg/mL (≈ 334 mM)
[1]; pH 6.65, aqueous buffer, read-out: Azithromycin Solubility
  solubility: 140 mg/mL (≈ 187 mM)
[1]; pH 6.75, aqueous buffer, read-out: Azithromycin Solubility
  solubility: 120 mg/mL (≈ 160 mM)
[1]; pH 6.87, aqueous buffer, read-out: Azithromycin Solubility
  solubility: 36 mg/mL (≈ 48.1 mM)
[1]; pH 7.41, aqueous buffer, read-out: Azithromycin Solubility
  solubility: 5 mg/mL (≈ 6.68 mM)
[1]; pH 8.02, aqueous buffer, read-out: Azithromycin Solubility
  solubility: 0.5 mg/mL (≈ 0.668 mM)
[1]; pH 8.85, aqueous buffer, read-out: Azithromycin Solubility
  solubility: 0.02 mg/mL (≈ 0.0267 mM)
[1]; pH 10.34, aqueous buffer, read-out: Azithromycin Solubility
  solubility: 0.005 mg/mL (≈ 0.00668 mM)
[2]; oral
  patients reporting GI side effects: 9.6%
[2]
  frequency of abdominal pain: 2.5%
  frequency of diarrhea: 3.6%
  frequency of nausea: 2.6%
[3]; [5]
  reported incidence of abdominal pain: 5%
  reported incidence of diarrhea/loose stools: 7%
  reported incidence of nausea: 5%
  reported incidence of vomiting: 2%
[3]; [6]
  reported incidence of abdominal pain: 7%
  reported incidence of diarrhea/loose stools: 14%
  reported incidence of vomiting: 7%
[3]; [7]
  reported incidence of abdominal pain: 2%
  reported incidence of diarrhea/loose stools: 4%
  reported incidence of vomiting: 2%
[3]; [8]
  reported incidence of diarrhea/loose stools: 6.4%
  reported incidence of nausea: 1.7%
  reported incidence of vomiting: 4%
[4]
  reduction of azithromycin maximum serum concentration Cmax by antacids: 24%
